Assays:
5-HT1D = target: T1, 5-HT1D (Homo sapiens, UniProt P28221); experiment: NIMH-PDSP radioligand binding assay, 5-HT1D
T1 construct: NIMH-PDSP
Description: (§1) . Cross selectivity for biogenic amines, neurotransmitter receptors, and transporters were determined by radioligand binding assays through NIMH- PDSP using validated and established protocols ([NIMH-PDSP Assay Protocol Book Version III, March 2018]).

5-HT3 = target: T2, 5-HT3 (Homo sapiens, UniProt P46098); experiment: NIMH-PDSP radioligand binding assay, 5-HT3
T2 construct: NIMH-PDSP
T2 sequence (P46098 24-478): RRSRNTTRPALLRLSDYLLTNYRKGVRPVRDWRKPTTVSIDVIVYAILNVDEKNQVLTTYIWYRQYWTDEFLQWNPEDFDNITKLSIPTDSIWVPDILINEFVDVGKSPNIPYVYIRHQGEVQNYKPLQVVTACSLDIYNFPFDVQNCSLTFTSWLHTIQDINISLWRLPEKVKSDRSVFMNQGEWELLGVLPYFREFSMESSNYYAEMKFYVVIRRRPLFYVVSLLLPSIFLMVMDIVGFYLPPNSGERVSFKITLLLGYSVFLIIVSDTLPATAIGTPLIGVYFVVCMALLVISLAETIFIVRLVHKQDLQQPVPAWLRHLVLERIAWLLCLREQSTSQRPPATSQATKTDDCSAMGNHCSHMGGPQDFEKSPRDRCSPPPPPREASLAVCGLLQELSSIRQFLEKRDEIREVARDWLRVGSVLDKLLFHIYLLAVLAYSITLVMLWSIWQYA
Description: as §1

Alpha1B = target: T3, Alpha1B (Homo sapiens, UniProt P35368); experiment: NIMH-PDSP radioligand binding assay, Alpha1B
T3 construct: NIMH-PDSP

Alpha 2A = target: T4, Alpha 2A (Homo sapiens, UniProt P08913); experiment: NIMH-PDSP radioligand binding assay, Alpha 2A
T4 construct: NIMH-PDSP

D1, D5 = experiment: NIMH-PDSP radioligand binding assay, D1, D5
DAT = DAT (Homo sapiens, UniProt Q01959); experiment: NIMH-PDSP radioligand binding assay, DAT
Description: as §1

NET = NET (Homo sapiens, UniProt P23975); experiment: NIMH-PDSP radioligand binding assay, NET
Description: as §1

CB1, CB2 = experiment: NIMH-PDSP radioligand binding assay, CB1, CB2
DOR, KOR, MOR = experiment: NIMH-PDSP radioligand binding assay, DOR, KOR, MOR
PBR = target: T5, PBR (Rattus norvegicus, UniProt P16257); experiment: NIMH-PDSP radioligand binding assay, PBR
T5 construct: NIMH-PDSP
Description: as §1

Sigma1R = target: T6, Sigma1R (Homo sapiens, UniProt Q99720); experiment: NIMH-PDSP radioligand binding assay, Sigma1R
T6 construct: NIMH-PDSP
Description: as §1

5-HT1A receptors = target: 5-HT1A receptors; set-up: method as in ref Fiorino et al. [2012], Fiorino et al. [2016], Fiorino et al. [2017]; details: previous reports, different binding assay methodology; ref Fiorino et al. [2012], Fiorino et al. [2016], Fiorino et al. [2017]; cited from earlier work
5-HT2C = target: T7, 5-HT2C (Homo sapiens, UniProt P28335); set-up: method as in ref Fiorino et al. [2012]; Fiorino et al. [2016]; Fiorino et al. [2017]; details: previous preliminary pharmacological screening; ref Fiorino et al. [2012]; Fiorino et al. [2016]; Fiorino et al. [2017]; cited from earlier work
T7 construct: NIMH-PDSP
T7 sequence (P28335 33-458): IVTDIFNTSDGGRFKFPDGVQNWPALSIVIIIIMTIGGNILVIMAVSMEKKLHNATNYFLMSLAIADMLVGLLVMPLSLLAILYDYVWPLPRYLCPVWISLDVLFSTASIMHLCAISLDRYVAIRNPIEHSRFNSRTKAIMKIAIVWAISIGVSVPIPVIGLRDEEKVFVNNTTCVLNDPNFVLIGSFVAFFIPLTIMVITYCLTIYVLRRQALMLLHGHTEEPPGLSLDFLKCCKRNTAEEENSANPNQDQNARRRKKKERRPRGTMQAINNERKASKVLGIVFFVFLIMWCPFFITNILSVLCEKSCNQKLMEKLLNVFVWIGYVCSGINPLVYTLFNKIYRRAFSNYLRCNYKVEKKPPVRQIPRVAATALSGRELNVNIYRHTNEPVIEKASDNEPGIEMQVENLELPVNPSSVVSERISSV

Sequence of DAT (Q01959 whole entry, species assumed): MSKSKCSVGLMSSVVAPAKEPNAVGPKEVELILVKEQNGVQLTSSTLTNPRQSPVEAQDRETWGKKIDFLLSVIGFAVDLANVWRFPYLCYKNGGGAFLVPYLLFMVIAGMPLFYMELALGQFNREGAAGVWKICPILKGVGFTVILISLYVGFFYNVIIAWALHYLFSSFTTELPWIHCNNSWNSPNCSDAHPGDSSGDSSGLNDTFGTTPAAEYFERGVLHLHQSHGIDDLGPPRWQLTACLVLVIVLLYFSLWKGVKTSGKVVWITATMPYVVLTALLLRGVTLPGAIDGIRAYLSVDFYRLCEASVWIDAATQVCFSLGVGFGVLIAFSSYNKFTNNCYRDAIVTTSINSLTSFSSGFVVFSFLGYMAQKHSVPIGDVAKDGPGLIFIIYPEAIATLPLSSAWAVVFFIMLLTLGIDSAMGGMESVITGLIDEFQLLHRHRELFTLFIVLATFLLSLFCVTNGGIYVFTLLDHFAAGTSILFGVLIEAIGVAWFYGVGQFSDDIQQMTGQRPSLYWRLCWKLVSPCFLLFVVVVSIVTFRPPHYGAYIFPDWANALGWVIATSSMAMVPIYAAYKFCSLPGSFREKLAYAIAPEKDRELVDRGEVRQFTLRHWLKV
T3 sequence (P35368 whole entry): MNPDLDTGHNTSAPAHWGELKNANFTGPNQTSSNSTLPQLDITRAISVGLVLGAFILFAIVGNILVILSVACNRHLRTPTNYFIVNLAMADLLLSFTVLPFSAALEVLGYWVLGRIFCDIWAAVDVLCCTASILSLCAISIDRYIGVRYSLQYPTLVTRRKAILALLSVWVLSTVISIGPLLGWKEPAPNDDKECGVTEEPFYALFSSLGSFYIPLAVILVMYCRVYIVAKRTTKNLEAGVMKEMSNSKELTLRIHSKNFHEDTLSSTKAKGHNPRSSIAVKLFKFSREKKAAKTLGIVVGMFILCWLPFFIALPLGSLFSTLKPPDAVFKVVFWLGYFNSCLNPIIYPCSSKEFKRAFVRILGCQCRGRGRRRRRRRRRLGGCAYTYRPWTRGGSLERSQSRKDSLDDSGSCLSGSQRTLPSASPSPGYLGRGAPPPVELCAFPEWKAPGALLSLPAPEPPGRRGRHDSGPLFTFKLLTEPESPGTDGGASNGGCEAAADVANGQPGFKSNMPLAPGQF
Sequence of NET (P23975 whole entry): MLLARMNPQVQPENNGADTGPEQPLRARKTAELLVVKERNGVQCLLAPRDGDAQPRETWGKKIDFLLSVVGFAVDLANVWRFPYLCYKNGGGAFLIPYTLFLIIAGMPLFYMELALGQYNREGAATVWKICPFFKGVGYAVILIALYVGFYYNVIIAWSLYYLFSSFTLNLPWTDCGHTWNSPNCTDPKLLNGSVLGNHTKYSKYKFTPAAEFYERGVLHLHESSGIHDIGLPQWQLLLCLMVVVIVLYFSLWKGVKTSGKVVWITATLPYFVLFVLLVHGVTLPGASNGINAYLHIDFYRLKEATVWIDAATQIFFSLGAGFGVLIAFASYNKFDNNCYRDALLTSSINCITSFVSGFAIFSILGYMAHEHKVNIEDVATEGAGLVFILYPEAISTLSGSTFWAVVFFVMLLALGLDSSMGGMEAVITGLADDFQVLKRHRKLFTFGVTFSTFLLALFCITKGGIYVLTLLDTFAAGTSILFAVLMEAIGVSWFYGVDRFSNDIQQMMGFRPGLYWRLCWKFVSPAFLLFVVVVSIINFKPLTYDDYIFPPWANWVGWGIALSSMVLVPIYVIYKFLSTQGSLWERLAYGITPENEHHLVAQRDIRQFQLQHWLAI
T4 sequence (P08913 whole entry): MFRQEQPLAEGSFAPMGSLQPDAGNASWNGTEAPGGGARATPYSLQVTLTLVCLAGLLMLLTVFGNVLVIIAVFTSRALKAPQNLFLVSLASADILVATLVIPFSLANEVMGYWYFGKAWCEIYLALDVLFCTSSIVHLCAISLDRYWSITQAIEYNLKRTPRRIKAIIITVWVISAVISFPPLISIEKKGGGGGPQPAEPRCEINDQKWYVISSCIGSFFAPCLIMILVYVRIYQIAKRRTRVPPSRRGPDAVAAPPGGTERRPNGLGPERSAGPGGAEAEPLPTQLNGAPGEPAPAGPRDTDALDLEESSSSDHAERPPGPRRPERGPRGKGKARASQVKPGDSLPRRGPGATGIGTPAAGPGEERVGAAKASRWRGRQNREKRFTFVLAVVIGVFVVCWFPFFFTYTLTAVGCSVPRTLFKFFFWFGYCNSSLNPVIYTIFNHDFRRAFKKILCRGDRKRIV
T1 sequence (P28221 whole entry, species assumed): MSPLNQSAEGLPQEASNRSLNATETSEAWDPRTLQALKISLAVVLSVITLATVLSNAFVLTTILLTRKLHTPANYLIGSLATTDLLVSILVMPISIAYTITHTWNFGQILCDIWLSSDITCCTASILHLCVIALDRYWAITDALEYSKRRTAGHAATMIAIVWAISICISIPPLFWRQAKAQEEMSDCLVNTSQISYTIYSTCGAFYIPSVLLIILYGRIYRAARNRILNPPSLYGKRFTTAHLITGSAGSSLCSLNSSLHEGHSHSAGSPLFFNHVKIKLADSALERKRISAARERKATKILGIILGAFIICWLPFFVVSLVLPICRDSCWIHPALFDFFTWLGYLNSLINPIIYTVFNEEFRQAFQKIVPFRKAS
T6 sequence (Q99720 whole entry, species assumed): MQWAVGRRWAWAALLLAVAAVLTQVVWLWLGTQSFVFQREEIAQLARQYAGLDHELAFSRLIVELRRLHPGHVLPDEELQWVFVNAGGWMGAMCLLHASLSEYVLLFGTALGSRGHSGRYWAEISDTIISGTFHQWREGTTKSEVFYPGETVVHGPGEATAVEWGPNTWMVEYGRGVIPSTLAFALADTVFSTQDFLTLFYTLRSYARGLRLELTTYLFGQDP

Row | SMILES | Ki (5-HT1D) [µM] | Ki (5-HT3) [µM] | Ki (Alpha1B) [µM] | Ki (Alpha 2A) [µM] | Ki (D1, D5) [µM] | Ki (DAT) [µM] | Ki (NET) [µM] | Ki (CB1, CB2) [µM] | Ki (DOR, KOR, MOR) [µM] | Ki (PBR) [µM] | Ki (Sigma1R) [µM] | Ki (5-HT1A receptors) [µM] | affinity to 5-HT2C (5-HT2C)
1 | COc1ccccc1N1CCN(CCNC(=O)c2ccccn2)CC1 [Compound 2] | > 10 | > 10 | 0.254 | > 10 | > 10 | > 10 | > 10 | > 10 | > 10 | > 10 | > 10 | – | –
2 | COc1ccccc1N1CCN(CCCN/C(=N\C#N)c2ccccn2)CC1 [Compound 1] | > 10 | > 10 | 1.08 | 0.453 | > 10 | > 10 | > 10 | > 10 | > 10 | > 10 | 0.52 | 0.00468 | high affinities

— article PMC7237647, “Synthesis, in vitro and in vivo evaluation of ^11C-O-methylated arylpiperazines as potential serotonin 1A (5-HT1A) receptor antagonist radiotracers” (EJNMMI Radiopharmacy and Chemistry, 2020)
